This note sets out measurements from patent US9573939B2, “Substituted benzofuran compounds and methods of use thereof for the treatment of viral diseases” (priority 2011, dated 2017).

The test system of one experiment is HCV replicon genotype 1a. The experiment in a line: microbe, parasite or virus in culture. The conditions noted are these: Hepatitis C virus; HCV genotype 1a replicon cells; 96 hours incubation; replicon-encoded NS3/4A protein by ELISA; percentage of DMSO control. Format: cell-based.
The subject of a further experiment is HCV replicon genotype 1b. Briefly: microbe, parasite or virus in culture. It counts as cell-based. The settings on record: Hepatitis C virus; HCV genotype 1b replicon cells; 96 hours incubation; replicon-encoded NS3/4A protein by ELISA; percentage of DMSO control. On the technique in general: A replicon is a self-replicating genome or part of one, used to study replication in cells.

pIC50: −log10 of the molar value.

For the molecule `CNC(=O)c1c(-c2ccc(F)cc2)oc2cc(N(C)S(C)(=O)=O)c(-c3ccc4[nH]c(-c5ccccc5)cc4c3)cc12` [Compound 39], the pIC50 in the experiment on HCV replicon genotype 1a is less than 6.00. As for `CNC(=O)c1c(-c2ccc(F)cc2)oc2cc(N(C)S(C)(=O)=O)c(-c3ccc4ncn(-c5ccc(F)cc5)c4c3)cc12` [Compound 15], the pIC50 is 7.69 with HCV replicon genotype 1b and 6.47 in the experiment with HCV replicon genotype 1a.

Consider `CNC(=O)c1c(-c2ccc(F)cc2)oc2cc(N(C)S(C)(=O)=O)c(-c3ccc4cnn(-c5ccc(Cl)cc5)c4c3)cc12` [Compound 52], for which the pIC50 with HCV replicon genotype 1b was 8.16; in the experiment with HCV replicon genotype 1a, 8.22. For `CNC(=O)c1c(-c2ccc(F)cc2)oc2cc(N(C)S(C)(=O)=O)c(-c3ccc4ncn(CCO)c4c3)cc12` [Compound 28], the negative-log IC50 (pIC50) with HCV replicon genotype 1b is 7.12; in the experiment with HCV replicon genotype 1a it was 6.12. Regarding `CNC(=O)c1c(-c2ccc(F)cc2)oc2cc(N(C)S(C)(=O)=O)c(-c3ccc4c(c3)ncn4-c3cccnc3)cc12` [Compound 23], the negative logarithm of the IC50 (pIC50) in the experiment on HCV replicon genotype 1a was 7.62. Regarding `CNC(=O)c1c(-c2ccc(F)cc2)oc2cc(N(C)S(C)(=O)=O)c(-c3ncc4ncn(-c5ccc(OC(F)(F)F)cc5)c4n3)cc12` [Compound 29, 2-(4-fluorophenyl)-N-methyl-6-(N-methylmethylsulfonamido)-5-(9-(4-(trifluoromethoxy)phenyl)-9H-purin-2-yl)benzofuran-3-carboxamide], the pIC50 with HCV replicon genotype 1a is less than 6.00. Turning to `CNC(=O)c1c(-c2ccc(F)cc2)oc2cc(N(C)S(C)(=O)=O)c(-c3ccc4c(c3)ncn4-c3ccccc3)cc12` [Compound 22], the pIC50 in the experiment on HCV replicon genotype 1b is 8.54; with HCV replicon genotype 1a, 7.60. `CNC(=O)c1c(-c2ccc(F)cc2)oc2cc(N(C)S(C)(=O)=O)c(-c3ncc4ncn(-c5ccc(C#N)cc5)c4n3)cc12` [Compound 32] gave a pIC50 in the experiment on HCV replicon genotype 1a of less than 6.00.

A word on the pIC50: it is the IC50 on a negative log10 scale, so that one unit is a factor of ten. A high value points to a small IC50.
